From ChEMBL document CHEMBL1201862, “PubChem BioAssay data set” (2004)
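A five-concentration, 48-hour dose response in 96-well plates underlies each endpoint, interpolated linearly between surrounding concentrations. Here, GI50 denotes the concentration required for 50% inhibition of growth.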 Calls of active or inactive are those of the source. No stated cut-off is given here; in the data, active = GI50 up to about 1.1 µM and inactive = higher.

Tests used:
Experiment in all cases: NCI-60 cell line screen, 48 h
OVCAR-8 = tested on: OVCAR-8
EKVX = tested on: EKVX
NCI-H23 = tested on: NCI-H23
HCT-15 = tested on: HCT-15
IGROV-1 = tested on: IGROV-1
U-251 = tested on: U-251
COLO 205 = tested on: COLO 205
SK-OV-3 = tested on: SK-OV-3
SW-620 = tested on: SW-620
HCC 2998 = tested on: HCC 2998
SK-MEL-5 = tested on: SK-MEL-5
HOP-62 = tested on: HOP-62
SNB-19 = tested on: SNB-19
SK-MEL-28 = tested on: SK-MEL-28
NCI-H226 = tested on: NCI-H226
HCT-116 = tested on: HCT-116
K562 = tested on: K562
A498 = tested on: A498
OVCAR-5 = tested on: OVCAR-5
LOX IMVI = tested on: LOX IMVI

Compound | GI50 (OVCAR-8) | GI50 (EKVX) | GI50 (NCI-H23) | GI50 (HCT-15) [µM] | GI50 (IGROV-1) | GI50 (U-251) | GI50 (COLO 205) | GI50 (SK-OV-3) | GI50 (SW-620) | GI50 (HCC 2998) | GI50 (SK-MEL-5) | GI50 (HOP-62) | GI50 (SNB-19) | GI50 (SK-MEL-28) | GI50 (NCI-H226) | GI50 (HCT-116) | GI50 (K562) | GI50 (A498) | GI50 (OVCAR-5) | GI50 (LOX IMVI)
Nc1nnc2nc(CC(=O)/C=C/c3ccccc3)c(=O)[nH]n12 | > 100 µM (inactive) | > 100 µM (inactive) | > 100 µM (inactive) | > 100 | > 100 µM (inactive) | > 100 µM (inactive) | > 100 µM (inactive) | > 100 µM (inactive) | > 100 µM (inactive) | > 100 µM (inactive) | > 100 µM (inactive) | > 100 µM (inactive) | > 100 µM (inactive) | > 100 µM (inactive) | > 100 µM (inactive) | > 100 µM (inactive) | > 100 µM (inactive) | > 100 µM (inactive) | > 100 µM (inactive) | > 100 µM (inactive)
O=S(=O)(O)c1cc2ccc1/C=C\c1ccc(cc1S(=O)(=O)O)/N=N\c1ccc(c(S(=O)(=O)O)c1)/C=C\c1ccc(cc1S(=O)(=O)O)/N=N\2 | > 100 µM (inactive) | > 100 µM (inactive) | > 100 µM (inactive) | > 100 | > 100 µM (inactive) | > 100 µM (inactive) | > 100 µM (inactive) | > 100 µM (inactive) | > 100 µM (inactive) | > 100 µM (inactive) | > 100 µM (inactive) | > 100 µM (inactive) | > 100 µM (inactive) | > 100 µM (inactive) | > 100 µM (inactive) | > 100 µM (inactive) | > 100 µM (inactive) | > 100 µM (inactive) | > 100 µM (inactive) | > 100 µM (inactive)
